# Test results published in patent US20220412956A1, “METHODS FOR ASSESSING TOXICITY OF A COMPOUND” (The Chinese University of Hong Kong, priority 2021, published 2022).
# “Also recorded” adds a separate entry of the source. Where two headings read alike, the source gives them in different places.
# What was measured:
# [1] = target: human mitochondrial RNA polymerase (Homo sapiens, UniProt O00411); conditions: purified enzyme; cited from earlier work
# hiPSC-CMs [2] = system: hiPSC-CMs
# [3] = system: ND1, ND5, SDHA, COX6A2, ATP6, ACADVL mRNA; assay: qRT-PCR of genes important for mitochondrial function; type: cell-based, human; conditions: 3 days, normoxic or hypoxic, normalised to B2M
# Procedure: Total RNA was extracted using Trizol Reagent according to the manufacturer's instructions (Thermo Fisher Scientific). Extracted RNA was reverse transcribed using PrimeScript RT Master Mix (Takara). Quantitative RT-PCR of target genes was performed with GoTaq® qPCR Master Mix (Promega) using an QuantStudio™ 12K Flex. Gene transcript abundance was normalised to B2M and then to that of the untreated sample to control for biological variations among the different sets of samples.
# Of the ETC genes, ND1, ND5 and ATP6 are encoded by the mitochondrial genome, while COX6A2 and SDHA are encoded by the nuclear genome. […] Overall, the general repression of ETC gene transcripts was consistent with and might contribute to the reduced redox potential observed (FIG. 1A).
# hiPSC-CMs [4] = assay: Mitochondrial membrane potential (Δψm), TMRE; type: cell-based, human; conditions: 3 days, treated vs control
# Procedure: Δψm was measured using the tetramethylrhodamine, ethyl ester (TMRE), a potentiometric dye whose fluorescent intensity is proportional to the mitochondrial potential. CMs were plated into Matrigel-coated surfaces in RPMI/B27 medium. Cells were incubated with TMRE (25 nM; Thermo Fisher Scientific) for 30 min at 37° C., after which they were washed with DPBS and intensity of fluorescence was measured using the Synergy HTX plate-reader (Biotek, Winooski, Vt.) with excitation and emission wavelengths of 540 nm and 590 nm.
# hiPSC-CMs [5] = assay: Mitochondrial mass, mitotracker dye (MTDR) intensity; type: cell-based, human; conditions: 0.1-12.5 μM, 3 days, normoxic and hypoxic
# Procedure: (§1) Cells were incubated with Mitotracker Deep Red FM dye (200 nM; Thermo Fisher Scientific) and Hoescht 33342 dye (5 μg/ml; Thermo Fisher Scientific) for 30 min at 37° C., after which they were fixed with 4% paraformaldehyde at room temperature for 15 min followed by 15 min wash with PBS and imaged with a Leica THUNDER Imager microscope or Nikon AIR HD25 confocal microscope.
# The first consisted of densely organised, elongated mitochondrial networks spread throughout the cytoplasm and this is considered to represent a healthy balance of fission and fusion. The second had punctate, fragmented mitochondria consistent with increased fission.
# hiPSC-CMs [6] = assay: Nuclear condensation / nuclear morphology / cell number, Hoescht staining; type: cell-based, human
# Procedure: as §1
# Similarly, nuclei were scored as normal (relatively large nuclei with regular shape) or condensed (intensely stained nuclei with irregular shape) by a technician blinded to the identities of the samples.
# Nuclear condensation is a sign of apoptosis and manifest as brightly-stained, small and ‘condensed’ nuclei.
# hiPSC-CMs [7] = assay: Mitochondrial morphology, Mitotracker staining (elongated / punctate / perinuclear); design: perinuclear mitochondria: dose or concentration left out as unconfirmed; conditions: for proportion of cells with punctate, fragmented mitochondria / proportion of punctate mitochondria / proportion of elongated mitochondria: 3 days; for proportion of cells with punctate, fragmented mitochondria: control 21.0±5.9%; for proportion of cells with punctate mitochondria / elongated mitochondria: 3 days hypoxic treatment + 3 days recovery; for proportion of cells with punctate mitochondria: control 46.1±[…]; for elongated mitochondria: control 47.4±4.9%; for proportion of punctate mitochondria / proportion of elongated mitochondria: hypoxic; for proportion of punctate mitochondria: control 37.3±6.1%; for proportion of elongated mitochondria: control 45.1±7.8%; for proportion of cells with healthy elongated mitochondria: FIG. 8C; for mitochondrial morphology (MTDR dye): FIG. 8B, treated CMs vs control
# hPSC-CMs = conditions: cited from earlier work
# [8] = cited from earlier work; for peak plasma concentration: healthy adult volunteers; for Cmax: healthy volunteers, read-out: Cmax / peak plasma concentration
# [9] = system: HT29, HCT116, HepG2 and PLC/PRF/5; conditions: high doses of 10 or 20 μM; cited from earlier work
# hiPSC-CMs [10] = assay: In vitro hiPSC-CM cardiotoxicity model, overall; type: cell-based, human; conditions: 0.1 μM and 0.5 μM
# Text: Importantly, these changes persisted and worsened after the withdrawal of this drug.
# Human iPSC-CMs were exposed to remdesivir under normal and hypoxic conditions for three days. There is a paucity of data which directly correlates oxygen saturation in vivo with oxygen concentration in vitro. […] Human iPSC-CMs exposed to 2.5% 02 were viable, beat and were morphologically indistinguishable from hiPSC-CMs cultured under normoxic (20% 02) conditions.
# Importantly, these abnormalities persisted after cessation of treatment, culminating in increased cell death.
# hiPSC-CMs [11] = system: hiPSC-CMs; remark: listed apart in the source
# [12] = cited from earlier work
# hiPSC-CMs [13] = conditions: human
# hiPSC-CMs [14] = system: hiPSC-CMs; remark: listed apart in the source
# [15] = co-treatment with 12.5 μM remdesivir
# human mitochondrial RNA polymerase, sequence (O00411 42-1230): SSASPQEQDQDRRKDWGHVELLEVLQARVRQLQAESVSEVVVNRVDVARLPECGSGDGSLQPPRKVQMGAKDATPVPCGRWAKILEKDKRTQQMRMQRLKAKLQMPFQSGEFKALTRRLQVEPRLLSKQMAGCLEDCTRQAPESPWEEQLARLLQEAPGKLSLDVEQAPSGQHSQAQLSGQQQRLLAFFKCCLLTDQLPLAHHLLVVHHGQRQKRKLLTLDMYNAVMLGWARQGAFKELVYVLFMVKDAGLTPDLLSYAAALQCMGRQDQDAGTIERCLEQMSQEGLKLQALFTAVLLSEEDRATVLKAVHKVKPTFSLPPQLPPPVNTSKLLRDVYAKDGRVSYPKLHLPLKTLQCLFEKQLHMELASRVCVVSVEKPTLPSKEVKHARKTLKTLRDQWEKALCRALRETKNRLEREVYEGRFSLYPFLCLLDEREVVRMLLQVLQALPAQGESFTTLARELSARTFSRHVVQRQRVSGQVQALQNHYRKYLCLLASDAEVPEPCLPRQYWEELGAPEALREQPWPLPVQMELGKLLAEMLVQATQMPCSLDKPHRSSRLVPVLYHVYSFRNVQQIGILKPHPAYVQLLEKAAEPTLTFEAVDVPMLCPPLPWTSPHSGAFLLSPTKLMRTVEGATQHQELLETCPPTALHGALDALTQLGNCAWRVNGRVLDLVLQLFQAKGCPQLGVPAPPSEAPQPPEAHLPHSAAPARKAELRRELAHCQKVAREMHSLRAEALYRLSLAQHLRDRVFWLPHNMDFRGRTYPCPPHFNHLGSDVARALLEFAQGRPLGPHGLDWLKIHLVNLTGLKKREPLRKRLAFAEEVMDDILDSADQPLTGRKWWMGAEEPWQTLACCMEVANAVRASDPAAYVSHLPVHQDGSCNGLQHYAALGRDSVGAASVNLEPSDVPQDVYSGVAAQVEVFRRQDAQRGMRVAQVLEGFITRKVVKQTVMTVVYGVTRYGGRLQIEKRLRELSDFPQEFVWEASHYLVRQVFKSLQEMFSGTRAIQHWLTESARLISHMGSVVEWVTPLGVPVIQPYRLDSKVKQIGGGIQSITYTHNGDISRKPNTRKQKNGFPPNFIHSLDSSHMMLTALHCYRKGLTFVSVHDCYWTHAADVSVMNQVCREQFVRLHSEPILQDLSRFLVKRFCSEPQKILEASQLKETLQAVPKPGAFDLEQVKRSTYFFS
compound,measurement,setting,value
N#C[C@@]1(c2ccc3c(N)ncnn23)O[C@H](COP(=O)(O)OP(=O)(O)OP(=O)(O)O)[C@@H](O)[C@H]1O [remdesivir-triphosphate],selectivity value (discrimination against the analogue),[1],~500 fold
CCC(CC)COC(=O)[C@H](C)N[P@](=O)(OC[C@H]1O[C@@](C#N)(c2ccc3c(N)ncnn23)[C@H](O)[C@@H]1O)Oc1ccccc1 [remdesivir],effect on redox potential,"hiPSC-CMs [2]; 0.1 μM and 0.5 μM, 3 days, normoxic and hypoxic",negligible effects
same,decrease of redox potential,"hiPSC-CMs [2]; 2.5 μM, 3 days hypoxic treatment + 3 days recovery without drug",41.0±8.7%
same,decrease of redox activity,"hiPSC-CMs [2]; 2.5 μM, 3 days, hypoxic (2.5% O2)",22.5±5.4%
same,decrease of redox activity,"hiPSC-CMs [2]; 2.5 μM, 3 days, normoxic",21.0±3.9%
same,decrease of redox potential,"hiPSC-CMs [2]; 12.5 μM, 3 days hypoxic treatment + 3 days recovery without drug",54.6±8.5%
same,decrease of redox potential,"hiPSC-CMs [2]; 12.5 μM, 3 days normoxic treatment + 3 days recovery without drug",44.1±8.1%
same,decrease of redox activity,"hiPSC-CMs [2]; 12.5 μM, 3 days, hypoxic (2.5% O2)",28.7±6.9%
same,decrease of redox activity,"hiPSC-CMs [2]; 12.5 μM, 3 days, normoxic",35.9±4.0%
same,ATP6 mRNA expression,[3],dose-dependently and significantly reduced
same,COX6A2 mRNA expression,[3],dose-dependently and significantly reduced
same,ND1 mRNA expression,[3],dose-dependently and significantly reduced
same,ND5 mRNA expression,[3],dose-dependently and significantly reduced
same,depolarisation of mitochondrial membrane potential (Δψm),hiPSC-CMs [4],No statistically significant decrease
same,mitochondrial mass,hiPSC-CMs [5],not statistically different
same,proportion of condensed nuclei,"hiPSC-CMs [6]; 2.5 μM and 12.5 μM, three days after treatment (recovery)",dose dependent increase
same,cell number,"hiPSC-CMs [6]; 3 days, all samples",No significant difference
same,number / proportion of cells with condensed nuclei,hiPSC-CMs [6]; immediately after 3 days of treatment,did not reveal any significant increase; also recorded: no statistically significant difference
same,"mitochondrial morphology, treated vs control","hiPSC-CMs [7]; 0.5 μM, 3 days treatment + 3 days recovery",no significant difference
same,"proportion of cells with punctate, fragmented mitochondria","hiPSC-CMs [7]; 0.5 μM, normoxic",44.4±7.1%
same,proportion of cells with punctate mitochondria,hiPSC-CMs [7]; 2.5 μM,66.1±1.1%
same,elongated mitochondria,hiPSC-CMs [7]; 2.5 μM,19.7±2.5%
same,proportion of punctate mitochondria,hiPSC-CMs [7]; 2.5 μM,64.4±4.1%
same,proportion of elongated mitochondria,hiPSC-CMs [7]; 2.5 μM,18.7±3.0%
same,"proportion of cells with punctate, fragmented mitochondria","hiPSC-CMs [7]; 2.5 μM, normoxic",57.3±7.2%
same,proportion of cells with punctate mitochondria,hiPSC-CMs [7]; 12.5 μM,65.5±6.6%
same,elongated mitochondria,hiPSC-CMs [7]; 12.5 μM,4.6±2.1%
same,proportion of cells with perinuclear mitochondria,"hiPSC-CMs [7]; 12.5 μM, 3 days treatment + 3 days recovery (follows the hypoxic data), control 6.5±1.5%",29.9±5.7%
same,proportion of punctate mitochondria,hiPSC-CMs [7]; 12.5 μM,58.9±8%
same,proportion of elongated mitochondria,hiPSC-CMs [7]; 12.5 μM,17.8±4.2%
same,"proportion of cells with punctate, fragmented mitochondria","hiPSC-CMs [7]; 12.5 μM, normoxic",64.4±9.5%
same,perinuclear mitochondria,hiPSC-CMs [7]; 3 days treatment + 3 days recovery (FIG. 4C),enriched
same,proportion of cells with healthy elongated mitochondria,hiPSC-CMs [7],reduced
same,QT intervals,hPSC-CMs,prolong QT intervals
same,peak plasma concentration,[8]; day 1 (200 mg),5.4 µg/mL
same,peak plasma concentration,[8]; day 5,2.6 µg/mL
same,Cmax,[8]; day 1 (200 mg),8.9 µM
same,Cmax,[8]; day 5,4.3 µM
same,mitochondrial toxicity,[9],demonstrated
same,persistent functional alterations,hiPSC-CMs [10],did not induce persistent functional alterations
same,sarcomeric arrangement,"hiPSC-CMs [11]; 0.5 μM, 3 days, hypoxia",induced the thinning and truncation of myofibrils
same,sarcomeric arrangement,"hiPSC-CMs [11]; 2.5 μM and 12.5 μM, 3 days treatment + 3 days recovery",disorganised sarcomeric arrangement
same,sarcomeric arrangement,"hiPSC-CMs [11]; 0.1 and 0.5 μM, 3 days, normoxic",did not have any noticeable effect
same,sarcomeric arrangement,"hiPSC-CMs [11]; 2.5 and 12.5 μM, 3 days, normoxic and hypoxic",greatly disorganised myofibrils
same,rate of cardiac death,"[12]; WHO Solidarity trial, comparator 0.4%",0.3%
same,serious atrial fibrillation,"[12]; one clinical study, placebo 0.2%",0.9%
same,risk of cardiac arrest,"[12]; one clinical study, placebo 1.4%",1.9%
same,spontaneous firing frequency,hiPSC-CMs [13],0.36±0.07 Hz
COc1nc(N)nc2c1ncn2[C@@H]1O[C@H](COP(=O)(N[C@@H](C)C(=O)OCC(C)(C)C)Oc2cccc3ccccc23)[C@@H](O)[C@@]1(C)O (some centres unmarked) [BMS-986094],mitochondrial morphology (MTDR dye),hiPSC-CMs [7],punctate (arrowhead) or perinuclear (arrow) mitochondria
same,proportion of cells with healthy elongated mitochondria,hiPSC-CMs [7],reduced
β-D-N4-hydroxycytidine,mitochondrial morphology (MTDR dye),hiPSC-CMs [7],punctate (arrowhead) or perinuclear (arrow) mitochondria
same,proportion of cells with healthy elongated mitochondria,hiPSC-CMs [7],reduced
COc1cc(-n2c(=S)[nH]c3ccccc3c2=O)c(Cl)cc1Cl [mdivi-1],redox potential,"hiPSC-CMs [2]; co-treatment with 2.5 μM remdesivir, normoxic and hypoxic",restored redox potential
same,redox potential,hiPSC-CMs [2]; [15],did not have noticeable effect
same,proportion of cells with elongated mitochondria,"hiPSC-CMs [7]; MD 15 mM, (FIG. 5B)",increased the proportion of cells with elongated mitochondria
same,formation of elongated mitochondria vs remdesivir alone,"hiPSC-CMs [7]; co-treatment with 2.5 μM remdesivir, normoxic",significantly promoted the formation of elongated mitochondria
same,protection of mitochondrial morphology,hiPSC-CMs [7]; [15],could only significantly protect hiPSC-CMs under hypoxic but not normoxic conditions
same,proportion of cells with punctate mitochondria vs remdesivir alone,"hiPSC-CMs [7]; co-treatment with remdesivir, hypoxia",corresponding decrease
same,sarcomeres (MLC2V-eGFP),hiPSC-CMs [11]; MD 15 mM co-treatment vs remdesivir alone (FIG. 5D),more striated sarcomeres
same,sarcomere arrangement,hiPSC-CMs [11]; co-treatment with 2.5 μM and 12.5 μM remdesivir,improved the sarcomere arrangement
NC(=O)c1ncn([C@@H]2O[C@H](CO)[C@@H](O)[C@H]2O)n1 [ribavirin],mitochondrial morphology (MTDR dye),hiPSC-CMs [7],primarily had elongated mitochondria
same,proportion of cells with healthy elongated mitochondria,hiPSC-CMs [14],did not have noticeable effect
